Source: patent US20190374533A1, “COMPOUNDS AND METHODS FOR INHIBITING NHE-MEDIATED ANTIPORT IN THE TREATMENT OF DISORDERS ASSOCIATED WITH FLUID RETENTION OR SALT OVERLOAD AND GASTROINTESTINAL TRACT DISORDERS” (Ardelyx, Inc., priority 2008, published 2019)
Where a name gives a salt, the structure may show the parent alone.

Target: T1, NHE3 (Homo sapiens, UniProt P48764)
T1 construct: due to the increase in NHE3 expression after differentiation; endogenous in cells; host or cells: human ileum / duodenum organoid-derived monolayers
T1 sequence (P48764 26-834): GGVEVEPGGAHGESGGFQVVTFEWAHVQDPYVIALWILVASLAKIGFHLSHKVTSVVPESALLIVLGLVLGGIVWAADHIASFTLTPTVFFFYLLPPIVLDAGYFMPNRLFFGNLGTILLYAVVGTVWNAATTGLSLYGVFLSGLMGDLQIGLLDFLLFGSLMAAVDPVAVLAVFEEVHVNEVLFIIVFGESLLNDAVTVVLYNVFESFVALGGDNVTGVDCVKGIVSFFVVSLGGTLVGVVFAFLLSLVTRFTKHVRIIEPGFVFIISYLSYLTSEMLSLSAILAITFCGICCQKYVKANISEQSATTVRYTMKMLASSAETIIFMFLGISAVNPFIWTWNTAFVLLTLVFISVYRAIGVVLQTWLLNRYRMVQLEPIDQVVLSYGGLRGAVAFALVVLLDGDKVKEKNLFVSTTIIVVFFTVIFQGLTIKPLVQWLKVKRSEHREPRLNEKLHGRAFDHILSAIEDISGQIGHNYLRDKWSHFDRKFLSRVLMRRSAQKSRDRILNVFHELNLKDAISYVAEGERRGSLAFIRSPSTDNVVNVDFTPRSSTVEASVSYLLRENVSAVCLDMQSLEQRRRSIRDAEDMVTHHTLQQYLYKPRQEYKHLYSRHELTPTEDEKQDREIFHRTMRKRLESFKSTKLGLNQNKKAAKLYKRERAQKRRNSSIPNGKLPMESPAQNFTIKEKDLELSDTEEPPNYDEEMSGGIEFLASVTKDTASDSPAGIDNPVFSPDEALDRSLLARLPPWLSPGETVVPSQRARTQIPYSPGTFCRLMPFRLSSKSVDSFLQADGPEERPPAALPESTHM
Assay: Sustained inhibition of apical acid secretion in human organoid monolayer cell cultures (ileum)
Assay type: cell-based
Conditions: 1 μM apical, dosed day 6, apical media pH day 8
Protocol: Basal media (BM) consisted of advanced DMEM/F12 containing 10 mM HEPES (Invitrogen, 15630-080), 1:100 Glutamax (Invitrogen, 35050-061), and 1:100 penicillin/streptomycin (Invitrogen, 15140-122). […] Growth factors used included 50 ng per mL mouse EGF (Peprotech, 315-09), 100 ng per mL mouse noggin (Peprotech, 250-38), 500 ng per mL human R-spondin 1 (R&D, 4645-RS), 100 ng per mL mouse Wnt-3a (R&D, 1324-WN), 20 μM Y-27632 (Tocris, 1254), 10 mM nicotinamide (Sigma, N0636), 500 nM A83-01 (Tocris, 2939), 10 μM SB202190 (Tocris, 1264). Transwells were 0.4 μm pore polyester membrane 24-well Transwell inserts (Corning). Cultures were incubated at 37° C. in 5% CO2.
Human ileum organoids were cultured in WENRNAS (Wnt, EGF, noggin. R-spondin1. Nicotinamide. A83-01, SB202190) and typically grown for 7-12 days before being used to plate monolayer cultures. On day 0, organoid cultures embedded in Matrigel were treated with TrypLE Express to break organoids into small pieces and/or single cells. […]
Each human ileum monolayer culture well was washed twice with fresh SBM on the apical side on day 6 before compound dosing. […] On day 8, apical media pH was measured by pH electrode, to determine the ability of example compounds to produce sustained inhibition of NHE3 activity in a human monolayer culture system by preventing proton secretion into the apical compartment.

CN1Cc2c(Cl)cc(Cl)cc2[C@H](c2cccc(S(=O)(=O)NCCOCCOCCNC(=O)NCCCCNC(=O)NCCOCCOCCNS(=O)(=O)c3cccc([C@@H]4CN(C)Cc5c(Cl)cc(Cl)cc54)c3)c2)C1 (single isomer, unassigned) [Example 202, (S or R)—N,N′-(10,17-dioxo-3,6,21,24-tetraoxa-9,11,16,18-tetraazahexacosane-1,26-diyl)bis(3-((S)-6,8-dichloro-2-methyl-1,2,3,4-tetrahydroisoquinolin-4-yl)benzenesulfonamide) bis-hydrochloride salt]
% inhibition (ileum): C (>70%)
